We go through four compounds from patent US20030004207A1, “USE OF COMPOUNDS WHICH ACTIVATE A 5-HT RECEPTOR TO TREAT URINARY INCONTINENCE” (priority 1999, published 2003).

Like-named read-outs stand apart in the source and are kept apart here.

Experiment [1] deals with distension-induced rhythmic contractions of the rat bladder. Put plainly: Distension-induced rhythmic contraction (DIRC) model of the micturition reflex. The format is in vivo. The following applies: for Effect on distension-induced rhythmic contractions of the rat bladder: urethane-anesthetized female rat, 0.1 mg/kg. The procedure:
The effects of compounds on the micturition reflex were assessed in the “distension-induced rhythmic contraction” (DIRC) model in rats, as described in previous publications (e.g. Maggi et al., 1987; Morikawa et al., 1992).
Female Sprague Dawley rats weighing approximately 300 g were anesthetized with subcutaneous urethane (1.2 g/kg). The trachea was cannulated with PE240 tubing to provide a clear airway throughout the experiment. A midline abdominal incision was made and the left and right ureters were isolated. The ureters were ligated distally (to prevent escape of fluids from the bladder) and cannulated proximally with PE10 tubing. The incision was closed using 4-0 silk sutures, leaving the PE10 lines routed to the exterior for the elimination of urine. The bladder was cannulated via the transurethral route using PE50 tubing inserted 2.5 cm beyond the urethral opening. This cannula was secured to the tail using tape and connected to a pressure transducer. To prevent leakage from the bladder, the cannula was tied tightly to the exterior urethral opening using 4-0 silk.
To initiate the micturition reflex, the bladder was first emptied by applying pressure to the lower abdomen, and then filled with normal saline in 100 μl increments (maximum=2 ml) until spontaneous bladder contractions occurred (typically 20-40 mmHg at a rate of one contraction every 1 to 2 minutes. Once a regular rhythm was established, vehicle (saline) or 5-HT1F-selective compounds were administered i.p. to explore their effects on bladder activity. In some instances, a compound known to affect the micturition reflex (e.g. the GABAB receptor agonist APMPA [3-aminopropyl-2-methyl-phosphinic acid]) was given as a “positive control”.

In the next experiment the target is T1, human 5-HT1F receptor (Homo sapiens, UniProt P30939).
T1 construct: expressed in transfected cells
T1 sequence (P30939 1-366): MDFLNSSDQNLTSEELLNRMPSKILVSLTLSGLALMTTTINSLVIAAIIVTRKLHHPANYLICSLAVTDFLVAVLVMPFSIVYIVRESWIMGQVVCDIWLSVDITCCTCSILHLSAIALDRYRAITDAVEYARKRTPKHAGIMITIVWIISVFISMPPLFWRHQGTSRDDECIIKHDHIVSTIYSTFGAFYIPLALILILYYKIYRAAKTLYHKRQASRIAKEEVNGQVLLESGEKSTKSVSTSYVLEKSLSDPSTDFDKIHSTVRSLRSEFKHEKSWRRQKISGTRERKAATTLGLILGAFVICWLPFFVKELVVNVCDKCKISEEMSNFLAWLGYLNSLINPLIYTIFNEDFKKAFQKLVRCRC
The experiment in a line: Radioligand competition binding, human 5-HT1F receptor ([3H]-serotonin). The following applies: read-out: Affinity at 5-HT1F (Ki ± SEM). On the procedure: (§1) The binding of a test compound to a receptor of interest was generally evaluated by competitive binding assays using membrane preparations derived from cells which expressed the receptor. First, conditions were determined which allowed measurement of the specific binding of a compound known to bind to the receptor. Then, the binding of the known compound to the receptor in membrane preparations was evaluated in the presence of several different concentrations of the test compound.
(§2) The binding properties of compounds at different human receptors were determined in vitro using cultured cell lines that selectively express the receptor of interest. These cell lines were prepared by transfecting the cloned cDNA or cloned genomic DNA or constructs containing both genomic DNA and cDNA encoding the human receptors as follows:
(§3) Human 5HT1B, 5HT1D, 5HT1E, 5HT1F, and 5HT7 Receptors:
(§4) The cell lysates of LM(tk-) clonal cell line stably transfected with the genes encoding each of these 5-HT receptor-subtypes were prepared as described above. Cell membranes were suspended in 50 mM Tris-HCl buffer (pH 7.4 at 37° C.) containing 10 mM MgCl2, 0.2 mM EDTA, 10 μM pargyline, and 0.1% ascorbate. The affinities of compounds were determined in equilibrium competition binding assays by incubation for 30 minutes at 37° C. in the presence of 5 nM [^3H]-serotonin. Nonspecific binding was determined in the presence of 10 μM serotonin. The bound radioligand was separated by filtration through GF/B filters using a cell harvester.

The target in the next experiment is T2, human 5-HT1E receptor (Homo sapiens, UniProt P28566).
T2 construct: expressed in transfected cells
Put plainly: Radioligand competition binding, human 5-HT1E receptor ([3H]-serotonin). The conditions noted are these: read-out: Affinity at 5-HT1E (Ki ± SEM). The procedure: as §1, §2, §3, §4
(In a radioligand displacement assay an active substance lowers the binding of a labelled ligand.)

In a further experiment the target is T3, human 5-HT2B receptor (Homo sapiens, UniProt P41595).
T3 construct: expressed in transfected cells
The experiment in a line: Radioligand binding, human 5-HT2B receptor. The procedure:
as §1
(§5) Other 5-HT Receptors: The binding assays using 5-HT4 were preformed according to the procedures described in U.S. Pat. No. 5,766,879, the disclosure of which is hereby incorporated by reference in its entirety into this application. Other serotonin receptor binding assays were preformed according to published methods: 5-HT2B: Kursar et al., 1992; 5-HT2C: Saltzman et al., 1991; 5-HT3: Hoyer and Neijt, 1987; 5-HT5A: Plassat et al., 1992; 5-HT5B: Matthes et al., 1993; 5-HT6: Kohen et al., 1996.

In another experiment the target is T4, human 5-HT1B receptor (Homo sapiens, UniProt P28222).
T4 construct: expressed in transfected cells
Put plainly: Radioligand competition binding, human 5-HT1B receptor ([3H]-serotonin). The conditions noted are these: read-out: Affinity at 5-HT1B (Ki ± SEM). On the procedure: as §1, §2, §3
(§6) The cell lysates of LM(tk-) clonal cell line stably transfected with the genes encoding each of these 5-HT receptor-subtypes were prepared as described above. Cell membranes were suspended in 50 mM Tris-HCl buffer (pH 7.4 at 37° C.) containing 10 mM MgCl2, 0.2 mM EDTA, 10 μM pargyline, and 0.1% ascorbate. […] Nonspecific binding was determined in the presence of 10 μM serotonin. […]

Another experiment has as its target T5, human 5-HT4 receptor (Homo sapiens, UniProt Q13639).
T5 construct: expressed in transfected cells
Put plainly: Radioligand binding, human 5-HT4 receptor. The following applies: read-out: Affinity at 5-HT4 (Ki ± SEM). The procedure: as §1, §5

A further experiment addresses T6, human 5-HT6 receptor (Homo sapiens, UniProt P50406).
T6 construct: expressed in transfected cells
The experiment in a line: Radioligand binding, human 5-HT6 receptor. The following applies: read-out: Affinity at 5-HT6 (Ki ± SEM). On the procedure: as §1, §5

Another experiment deals with T7, human 5-HT2A receptor (Homo sapiens, UniProt P28223).
T7 construct: expressed in transfected cells; host or cells: COS-7 (transient, pCEXV-3 vector)
Put plainly: Radioligand competition binding, human 5-HT2A receptor ([3H] ketanserin). On the procedure:
as §1, §2
Human 5HT2A Receptor: The coding sequence of the human 5HT2A receptor was obtained from a human brain cortex cDNA library, and cloned into the cloning site of pCEXV-3 eukaryotic expression vector. This construct was transfected into COS-7 cells by the DEAE-dextran method. Cells were harvested after 72 hours and lysed by sonication in 5 mM Tris-HCl, 5 mM EDTA, pH 7.5. […] The affinity of compounds at 5-HT2A receptors were determined in equilibrium competition binding assays using [^3H] ketanserin (1 nM). […]

Another experiment addresses T8, human 5-HT2C receptor (Homo sapiens, UniProt P28335).
T8 construct: expressed in transfected cells
T8 sequence (P28335 33-458): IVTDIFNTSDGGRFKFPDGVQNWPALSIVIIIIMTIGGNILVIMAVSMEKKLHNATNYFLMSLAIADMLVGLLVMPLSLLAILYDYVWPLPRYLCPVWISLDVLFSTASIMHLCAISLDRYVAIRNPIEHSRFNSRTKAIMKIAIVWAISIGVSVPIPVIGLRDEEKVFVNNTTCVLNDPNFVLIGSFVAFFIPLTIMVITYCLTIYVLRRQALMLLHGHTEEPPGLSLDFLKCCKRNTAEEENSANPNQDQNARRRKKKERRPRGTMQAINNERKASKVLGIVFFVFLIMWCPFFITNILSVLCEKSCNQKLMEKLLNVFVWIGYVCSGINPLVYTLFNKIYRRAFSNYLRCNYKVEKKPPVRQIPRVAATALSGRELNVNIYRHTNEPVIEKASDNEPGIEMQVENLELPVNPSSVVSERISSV
Put plainly: Radioligand binding, human 5-HT2C receptor. The procedure:
as §1, §5

A further experiment addresses T9, human 5-HT7 receptor (Homo sapiens, UniProt P34969).
T9 construct: expressed in transfected cells
Put plainly: Radioligand competition binding, human 5-HT7 receptor ([3H]-serotonin). The conditions noted are these: read-out: Affinity at 5-HT7 (Ki ± SEM). The procedure:
as §1, §2, §3, §6

Another experiment addresses T10, human 5-HT1D receptor (Homo sapiens, UniProt P28221).
T10 construct: expressed in transfected cells
Put plainly: Radioligand competition binding, human 5-HT1D receptor ([3H]-serotonin). The following applies: read-out: Affinity at 5-HT1D (Ki ± SEM). The procedure:
as §1, §2, §3, §6

The next experiment addresses T11, human 5-HT1A receptor (Homo sapiens, UniProt P08908).
T11 construct: expressed in transfected cells; host or cells: COS-7 (transient, pCEXV-3 vector)
T11 sequence (P08908 1-422): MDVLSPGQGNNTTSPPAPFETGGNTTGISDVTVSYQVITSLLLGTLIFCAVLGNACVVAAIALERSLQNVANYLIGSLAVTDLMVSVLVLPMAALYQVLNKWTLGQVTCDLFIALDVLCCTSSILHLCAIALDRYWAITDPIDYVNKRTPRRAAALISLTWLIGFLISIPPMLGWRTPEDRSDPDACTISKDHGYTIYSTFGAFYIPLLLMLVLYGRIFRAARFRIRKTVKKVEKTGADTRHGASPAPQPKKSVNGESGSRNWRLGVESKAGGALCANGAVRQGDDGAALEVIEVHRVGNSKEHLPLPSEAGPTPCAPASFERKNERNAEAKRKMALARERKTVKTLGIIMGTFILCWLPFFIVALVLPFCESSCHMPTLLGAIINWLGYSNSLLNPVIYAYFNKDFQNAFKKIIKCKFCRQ
The experiment in a line: Radioligand competition binding, human 5-HT1A receptor (3H-8-OH-DPAT). The conditions noted are these: read-out: Affinity at 5-HT1A (Ki ± SEM). On the procedure: as §1
The binding properties of compounds at different human receptors were determined in vitro using cultured cell lines that selectively express the receptor of interest. […]
Human 5HT2A Receptor: The coding sequence of the human 5HT2A receptor was obtained from a human brain cortex cDNA library, and cloned into the cloning site of pCEXV-3 eukaryotic expression vector. […] The affinity of compounds at 5-HT2A receptors were determined in equilibrium competition binding assays using [^3H] ketanserin (1 nM). […]
5-HT1A Receptor: The cDNA corresponding to the 5-HT1A receptor open reading frames and variable non-coding 5′- and 3′-regions, was cloned into the eukaryotic expression vector pCEXV-3. […] Radioligand binding assays were performed as described above for the 5-HT2A receptor, except that ^3H-8-OH-DPAT was used as the radioligand and nonspecific binding was determined by the addition of 10 μM mianserin.

[2] abbreviates: rat, prior administration of antagonist 1.0 mg/kg, i.p.

T2 sequence (P28566 whole entry): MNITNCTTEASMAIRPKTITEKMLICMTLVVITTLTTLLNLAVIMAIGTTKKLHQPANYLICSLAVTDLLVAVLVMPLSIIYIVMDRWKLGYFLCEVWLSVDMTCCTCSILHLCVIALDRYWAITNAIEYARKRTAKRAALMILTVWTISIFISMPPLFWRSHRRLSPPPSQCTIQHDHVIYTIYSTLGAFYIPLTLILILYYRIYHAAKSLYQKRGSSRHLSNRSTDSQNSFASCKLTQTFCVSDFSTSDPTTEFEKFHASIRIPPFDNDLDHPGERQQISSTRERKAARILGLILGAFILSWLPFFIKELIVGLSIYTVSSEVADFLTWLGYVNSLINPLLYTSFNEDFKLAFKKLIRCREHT
T10 sequence (P28221 whole entry): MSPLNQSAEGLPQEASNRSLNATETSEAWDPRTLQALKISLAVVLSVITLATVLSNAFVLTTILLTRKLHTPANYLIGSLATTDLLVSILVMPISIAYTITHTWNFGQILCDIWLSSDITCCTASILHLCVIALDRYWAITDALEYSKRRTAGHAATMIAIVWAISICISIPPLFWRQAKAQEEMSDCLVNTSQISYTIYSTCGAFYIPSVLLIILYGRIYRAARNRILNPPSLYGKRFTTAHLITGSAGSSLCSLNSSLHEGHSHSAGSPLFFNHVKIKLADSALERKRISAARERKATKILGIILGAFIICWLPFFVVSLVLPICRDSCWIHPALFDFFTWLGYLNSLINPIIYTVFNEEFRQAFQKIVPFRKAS
T3 sequence (P41595 whole entry): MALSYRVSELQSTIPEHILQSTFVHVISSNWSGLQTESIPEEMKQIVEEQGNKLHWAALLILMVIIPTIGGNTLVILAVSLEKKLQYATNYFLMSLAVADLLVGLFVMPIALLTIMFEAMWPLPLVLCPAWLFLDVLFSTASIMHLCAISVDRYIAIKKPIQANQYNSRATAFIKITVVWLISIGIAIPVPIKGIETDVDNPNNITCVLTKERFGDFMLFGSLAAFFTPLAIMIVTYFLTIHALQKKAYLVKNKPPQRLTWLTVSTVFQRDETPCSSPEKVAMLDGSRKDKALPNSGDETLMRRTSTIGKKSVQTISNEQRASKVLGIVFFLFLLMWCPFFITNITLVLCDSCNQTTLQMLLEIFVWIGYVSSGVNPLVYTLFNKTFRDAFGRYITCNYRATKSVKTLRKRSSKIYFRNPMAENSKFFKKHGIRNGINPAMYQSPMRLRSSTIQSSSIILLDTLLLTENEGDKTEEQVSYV
T6 sequence (P50406 whole entry): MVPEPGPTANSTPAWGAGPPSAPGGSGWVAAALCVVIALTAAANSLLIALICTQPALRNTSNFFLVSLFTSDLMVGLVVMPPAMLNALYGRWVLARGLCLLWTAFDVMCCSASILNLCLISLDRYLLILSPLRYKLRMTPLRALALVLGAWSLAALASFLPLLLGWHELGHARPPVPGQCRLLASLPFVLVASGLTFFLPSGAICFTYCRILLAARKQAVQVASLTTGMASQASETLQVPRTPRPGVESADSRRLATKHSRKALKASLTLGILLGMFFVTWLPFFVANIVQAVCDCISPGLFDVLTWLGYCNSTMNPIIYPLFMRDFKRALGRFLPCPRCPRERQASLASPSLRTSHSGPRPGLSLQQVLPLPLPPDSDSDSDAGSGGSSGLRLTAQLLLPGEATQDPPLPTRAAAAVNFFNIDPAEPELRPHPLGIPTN
T9 sequence (P34969 whole entry): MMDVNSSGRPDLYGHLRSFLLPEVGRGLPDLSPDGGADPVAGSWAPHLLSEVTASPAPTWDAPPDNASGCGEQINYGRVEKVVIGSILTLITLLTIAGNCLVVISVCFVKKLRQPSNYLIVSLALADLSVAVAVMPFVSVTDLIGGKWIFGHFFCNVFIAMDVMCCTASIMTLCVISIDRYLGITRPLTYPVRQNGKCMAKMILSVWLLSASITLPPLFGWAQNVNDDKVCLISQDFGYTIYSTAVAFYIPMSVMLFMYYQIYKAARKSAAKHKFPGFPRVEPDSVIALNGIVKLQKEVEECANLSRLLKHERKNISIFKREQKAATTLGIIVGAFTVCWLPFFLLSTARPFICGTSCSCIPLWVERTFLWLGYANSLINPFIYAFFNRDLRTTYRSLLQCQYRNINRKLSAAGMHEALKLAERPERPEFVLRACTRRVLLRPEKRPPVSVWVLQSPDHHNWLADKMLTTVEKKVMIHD
T7 sequence (P28223 whole entry): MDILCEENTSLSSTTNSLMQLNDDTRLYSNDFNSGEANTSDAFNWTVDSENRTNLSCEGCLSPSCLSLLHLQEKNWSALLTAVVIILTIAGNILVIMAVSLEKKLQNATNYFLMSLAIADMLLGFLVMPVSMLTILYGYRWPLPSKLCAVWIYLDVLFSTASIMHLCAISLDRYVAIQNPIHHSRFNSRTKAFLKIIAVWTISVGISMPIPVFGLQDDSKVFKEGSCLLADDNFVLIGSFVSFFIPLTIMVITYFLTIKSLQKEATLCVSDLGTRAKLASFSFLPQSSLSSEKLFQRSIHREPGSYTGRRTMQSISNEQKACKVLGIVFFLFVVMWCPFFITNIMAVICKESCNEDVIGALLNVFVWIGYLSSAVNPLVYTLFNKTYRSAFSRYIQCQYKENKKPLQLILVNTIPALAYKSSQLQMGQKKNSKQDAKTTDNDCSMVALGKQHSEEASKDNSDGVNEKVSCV
T5 sequence (Q13639 whole entry): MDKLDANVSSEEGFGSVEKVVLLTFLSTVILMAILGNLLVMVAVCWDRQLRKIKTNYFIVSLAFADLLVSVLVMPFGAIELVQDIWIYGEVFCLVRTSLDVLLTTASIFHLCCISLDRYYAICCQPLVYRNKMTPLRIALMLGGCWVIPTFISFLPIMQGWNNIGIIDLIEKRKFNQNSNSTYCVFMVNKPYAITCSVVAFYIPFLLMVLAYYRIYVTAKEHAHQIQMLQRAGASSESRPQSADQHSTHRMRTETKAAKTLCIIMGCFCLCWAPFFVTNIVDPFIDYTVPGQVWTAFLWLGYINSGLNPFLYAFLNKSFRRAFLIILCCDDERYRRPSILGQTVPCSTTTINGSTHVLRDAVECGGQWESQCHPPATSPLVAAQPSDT
T4 sequence (P28222 whole entry): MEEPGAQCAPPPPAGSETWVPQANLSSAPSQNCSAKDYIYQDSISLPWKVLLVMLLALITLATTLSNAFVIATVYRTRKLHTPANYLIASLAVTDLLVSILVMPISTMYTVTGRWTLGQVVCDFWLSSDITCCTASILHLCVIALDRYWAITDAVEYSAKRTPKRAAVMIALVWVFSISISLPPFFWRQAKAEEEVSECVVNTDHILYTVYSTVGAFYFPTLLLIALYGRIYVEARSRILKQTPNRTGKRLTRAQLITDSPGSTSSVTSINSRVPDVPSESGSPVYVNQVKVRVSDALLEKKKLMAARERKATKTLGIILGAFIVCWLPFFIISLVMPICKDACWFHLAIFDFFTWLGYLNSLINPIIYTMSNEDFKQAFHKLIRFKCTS

In the case of `CN(C)[C@@H]1CCc2c([nH]c3ccc(NC(=O)c4ccc(F)cc4)cc23)C1` [Compound 2, (R)-(+)-6-(4-fluorobenzoyl)amino-2-(dimethyl)amino-1,2,3,4-tetrahydro-9H-carbazole], the “Effect on distension-induced rhythmic contractions of the rat bladder” value in [1] (i.p.) is recorded as “inhibited”. Also, the values for the Ki at human 5-HT1F receptor and at human 5-HT1E receptor were 3.47 ± 0.08 nM and 461 ± 102 nM, respectively.

As for `O[C@H](COc1ccc2ccccc2c1)CN1CCC(O)(c2cnc3ccccc3c2)CC1` [Compound 3, 1-((2S)-hydroxy-3-(naphth-2-yloxy)prop-1-yl)-4-hydroxy-4-(quinolin-3-yl)piperidine], the Ki (in general, the dissociation constant of the complex between target and ligand, obtained from inhibition or displacement) at human 5-HT2B receptor came to 496 ± 36 nM; on human 5-HT1B receptor, 1280 ± 144 nM; on human 5-HT4 receptor, 405 ± 122 nM; at human 5-HT6 receptor, 4220 ± 399 nM; at human 5-HT2A receptor, 377 ± 94 nM; at human 5-HT2C receptor, 1370 ± 341 nM. Further, the Ki at human 5-HT1F receptor was found to be 4.31 ± 0.53 nM; at human 5-HT7 receptor, 4410 ± 514 nM; on human 5-HT1D receptor, 1530 ± 400 nM; at human 5-HT1E receptor it was 3670 ± 505 nM; at human 5-HT1A receptor, 591 ± 143 nM. The “Blockade of the inhibitory effect of Compound 2 on bladder contractions” value in [1] (setting [2]) is given as “complete blockade”. The “Blockade of the inhibitory effect of the GABAB agonist 3-APMPA on bladder contractions” value in [1] (setting [2]) is “failed to block”.

In the case of `CP(=O)(O)CCCN` [Compound 3-APMPA, 3-aminopropyl-methyl-phosphinic acid, reference compound], in experiment [1] (rat, after Compound 3, dose not given), the “Effect on bladder contractions (positive control)” value is “inhibitory effect”.

Turning to `CN(C)C1CCc2oc3ccc(NC(=O)c4ccncc4)cc3c2C1` (centres unmarked) [Compound 1, N-(N,N-Dimethyl-1,2,3,4-tetrahydro-2-aminodibenzofur-8-yl)-pyridine-4-carboxamide], the Ki is 4200 ± 219 nM on human 5-HT2B receptor (human 5-HT2B, read-out: Affinity at 5-HT2B (Ki ± SEM)); 751 ± 68 nM at human 5-HT1B receptor; 1870 ± 57 nM at human 5-HT4 receptor; > 5000 nM on human 5-HT6 receptor; > 5000 nM at human 5-HT2A receptor (human 5-HT2A, read-out: Affinity at 5-HT2A (Ki ± SEM)); 4760 ± 169 nM at human 5-HT2C receptor (human 5-HT2C, read-out: Affinity at 5-HT2C (Ki ± SEM)). Further, the inhibition constant (Ki) at human 5-HT1F receptor was 7.11 ± 0.76 nM; on human 5-HT7 receptor, > 5000 nM; at human 5-HT1D receptor it was 1780 ± 87 nM; on human 5-HT1E receptor, 2900 ± 288 nM; at human 5-HT1A receptor, 367 ± 42 nM. Also, the “Effect on distension-induced rhythmic contractions of the rat bladder” value in [1] (i.p.) is recorded as “inhibited”.
